Assay results: article PMC5154685 (Journal of medicinal chemistry, 2016)

Assays:
[1] = molecular target: Eis_Mtb acetyltransferase (Mycobacterium tuberculosis, UniProt P9WFK7); type: biochemical; conditions: for Extent of Eis inhibition of HTS compounds (in words): follow-up description
[2] = molecular target: AAC(2′)-Ic (Mycobacterium tuberculosis, UniProt P9WQG9); assay: Inhibitor selectivity, AAC
[3] = molecular target: AAC(6′)-Ie/APH(2″)-Ia (Staphylococcus aureus, UniProt P0A0C1); assay: Inhibitor selectivity, AAC; type: biochemical; conditions: concentrations as high as 200 μM
Chain of AAC(6′)-Ie/APH(2″)-Ia (P0A0C1 whole entry): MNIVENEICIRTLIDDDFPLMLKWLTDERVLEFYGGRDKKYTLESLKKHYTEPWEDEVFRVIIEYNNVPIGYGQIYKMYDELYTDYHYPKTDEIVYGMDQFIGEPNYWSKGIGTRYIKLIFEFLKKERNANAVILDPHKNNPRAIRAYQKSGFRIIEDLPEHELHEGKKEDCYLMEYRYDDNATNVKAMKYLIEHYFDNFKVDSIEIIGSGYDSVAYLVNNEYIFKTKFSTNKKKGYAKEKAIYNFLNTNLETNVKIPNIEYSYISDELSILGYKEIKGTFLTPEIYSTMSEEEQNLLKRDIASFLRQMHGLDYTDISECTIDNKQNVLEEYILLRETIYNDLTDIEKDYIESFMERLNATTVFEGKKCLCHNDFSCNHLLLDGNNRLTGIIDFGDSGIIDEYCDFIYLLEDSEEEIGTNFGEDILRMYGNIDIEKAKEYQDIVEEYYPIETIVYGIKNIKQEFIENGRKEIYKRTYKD

Chain of Eis_Mtb acetyltransferase (P9WFK7 whole entry): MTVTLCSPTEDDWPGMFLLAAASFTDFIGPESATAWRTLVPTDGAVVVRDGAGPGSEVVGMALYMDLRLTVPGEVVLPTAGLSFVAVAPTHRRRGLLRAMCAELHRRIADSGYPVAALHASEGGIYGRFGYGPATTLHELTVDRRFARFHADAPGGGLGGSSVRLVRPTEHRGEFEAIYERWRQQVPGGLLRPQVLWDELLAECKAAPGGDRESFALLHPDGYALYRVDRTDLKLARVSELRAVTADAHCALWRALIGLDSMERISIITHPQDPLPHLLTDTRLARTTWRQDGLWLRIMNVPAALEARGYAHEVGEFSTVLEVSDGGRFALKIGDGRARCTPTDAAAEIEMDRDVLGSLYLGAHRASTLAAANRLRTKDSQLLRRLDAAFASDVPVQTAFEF
Chain of AAC(2′)-Ic (P9WQG9 whole entry): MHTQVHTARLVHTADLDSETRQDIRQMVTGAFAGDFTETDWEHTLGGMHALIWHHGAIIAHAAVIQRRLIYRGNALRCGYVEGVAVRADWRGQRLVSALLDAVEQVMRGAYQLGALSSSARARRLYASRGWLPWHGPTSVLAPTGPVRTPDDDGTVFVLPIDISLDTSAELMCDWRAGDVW

SMILES	inhibition of acetylation by AAC(6′)-Ie/APH(2″)-Ia (in words) [3]	Extent of Eis inhibition of HTS compounds (in words) [1]	further results
CN(c1ccc(Br)cc1)S(=O)(=O)c1ccc2[nH]c(=O)c(=O)[nH]c2c1 [Compound 29, N-(4-Bromophenyl)-N-methyl-2,3-dioxo-1,2,3,4-tetrahydro-6-quinoxalinesulfonamide]			Eis inhibition in the HTS (hit or not) [1]: hits
CN(c1ccc2ccccc2c1)S(=O)(=O)c1ccc2[nH]c(=O)c(=O)[nH]c2c1 [Compound 46, N-(2-Naphthyl)-N-methyl-2,3-dioxo-1,2,3,4-tetrahydro-6-quinoxalinesulfonamide]	did not inhibit		inhibition of acetylation by AAC(2′)-Ic (in words) [2]: did not inhibit
Cc1cc(NS(=O)(=O)c2ccc3[nH]c(=O)c(=O)[nH]c3c2)ccc1Br [Compound 1]		modest Eis inhibition	
O=c1[nH]c2ccc(S(=O)(=O)Nc3ccc4c(c3)OCCO4)cc2[nH]c1=O [Compound 4]		modest Eis inhibition	
O=c1[nH]c2ccc(S(=O)(=O)Nc3ccc(Cl)c(C(F)(F)F)c3)cc2[nH]c1=O [Compound 3]		modest Eis inhibition	
COc1cccc(N(C)S(=O)(=O)c2ccc3[nH]c(=O)c(=O)[nH]c3c2)c1 [Compound 39, N-(3-Methoxyphenyl)-N-methyl-2,3-dioxo-1,2,3,4-tetrahydro-6-quinoxalinesulfonamide]	did not inhibit		
